The values below come from PubChem BioAssay (NCI).

Test systems include A549 NSCLC; ACHN renal; CCRF-CEM leukemia; HL-60(TB) leukemia; HOP-62 NSCLC; M14 melanoma; MALME-3M melanoma; MOLT-4 leukemia; NCI-H522 lung; OVCAR-5 ovarian; SF-539 CNS; UACC-257 melanoma; UO-31 renal; A498 renal; EKVX NSCLC; SN12C renal; RXF 393 renal.
Common to all, as to test: growth of human tumour cells (NCI), 48 h

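Growth conditions: 96-well plates. Treatment: test compound, 48 hours, 5 concentrations. Analysis: linear interpolation between bracketing concentrations; unreached endpoints set to highest concentration. The concentration for full growth arrest is given as TGI.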

`CC[N+](CC)(CC)Cc1cn(S(=O)(=O)c2ccccc2)c2ccccc12`: the TGI with A549 NSCLC, with ACHN renal, in the assay on CCRF-CEM leukemia, in the assay on HL-60(TB) leukemia, with HOP-62 NSCLC and in the assay on M14 melanoma was greater than 100 µM in each case. Also, the TGI in the assay on MALME-3M melanoma, in the assay on MOLT-4 leukemia, in the assay on NCI-H522 lung, in the assay with OVCAR-5 ovarian, in the assay with SF-539 CNS and in the assay with UACC-257 melanoma was greater than 100 µM in each case. In the assay with UO-31 renal, this compound came in with a TGI greater than 100 µM.
`COc1ccc2c(c1)CC1NC2Cc2ccccc21` (stereo not drawn): the TGI in the assay with A498 renal, in the assay on A549 NSCLC, in the assay with ACHN renal, in the assay with CCRF-CEM leukemia, in the assay with EKVX NSCLC and with HOP-62 NSCLC was greater than 100 µM throughout. In addition, the TGI in the assay with M14 melanoma, in the assay with MALME-3M melanoma, in the assay on MOLT-4 leukemia, in the assay on NCI-H522 lung, with OVCAR-5 ovarian and in the assay with SF-539 CNS was greater than 100 µM in each case. The TGI in the assay with UACC-257 melanoma and in the assay on UO-31 renal was greater than 100 µM throughout.
For `C1=Cc2nc1c(-c1ccccc1)c1ccc([n-]1)c(-c1ccccc1)c1nc(c(-c3ccccc3)c3ccc([n-]3)c2-c2ccccc2)C=C1.[Zn+2]`, the TGI in the assay with A549 NSCLC, with ACHN renal, with CCRF-CEM leukemia, with EKVX NSCLC, in the assay on HL-60(TB) leukemia and in the assay with HOP-62 NSCLC was greater than 100 µM throughout. For the same compound, the TGI in the assay with M14 melanoma, in the assay on MALME-3M melanoma, with MOLT-4 leukemia, in the assay with NCI-H522 lung, in the assay with OVCAR-5 ovarian and in the assay on SF-539 CNS was greater than 100 µM each time. Besides, the TGI with SN12C renal, in the assay on UACC-257 melanoma and in the assay with UO-31 renal was greater than 100 µM throughout.
As to `COc1cc(/C=C2\CCC(C)c3c2nc(N)c(C#N)c3-c2cc(OC)c(OC)c(OC)c2)cc(OC)c1OC` (stereo not drawn), the TGI in the assay on A498 renal, in the assay on A549 NSCLC, in the assay on ACHN renal, in the assay on CCRF-CEM leukemia, in the assay on EKVX NSCLC and in the assay with HL-60(TB) leukemia was greater than 100 µM throughout. The TGI in the assay with HOP-62 NSCLC, in the assay on M14 melanoma, with MOLT-4 leukemia, with OVCAR-5 ovarian, with RXF 393 renal and in the assay on SN12C renal was greater than 100 µM throughout. Besides, the TGI in the assay with UACC-257 melanoma is greater than 100 µM.
Turning to `c1ccc2c(NCCCCCCCCNc3cccc4ccccc34)cccc2c1`, the TGI in the assay on A498 renal is greater than 100 µM; in the assay with A549 NSCLC, greater than 100 µM; with ACHN renal, 80.6 µM; in the assay with CCRF-CEM leukemia it was 42.5 µM; with EKVX NSCLC, greater than 10 µM; with HL-60(TB) leukemia, 50.7 µM. Also, the TGI is greater than 100 µM with HOP-62 NSCLC; 39.6 µM in the assay with M14 melanoma; 46.5 µM in the assay with MALME-3M melanoma; 39.9 µM with MOLT-4 leukemia; 36 µM with NCI-H522 lung; greater than 100 µM with OVCAR-5 ovarian. In addition, the TGI was 72.2 µM with SF-539 CNS, greater than 100 µM with SN12C renal, 51.7 µM in the assay with UACC-257 melanoma and greater than 100 µM with UO-31 renal.
Regarding `CC1C(c2ccccc2)=CCON1c1ccccc1` (stereo not drawn), the TGI in the assay on A549 NSCLC, in the assay with ACHN renal, with CCRF-CEM leukemia, in the assay with EKVX NSCLC, in the assay on HL-60(TB) leukemia and with HOP-62 NSCLC was greater than 100 µM in each case. In addition, the TGI with M14 melanoma, in the assay on MALME-3M melanoma, with MOLT-4 leukemia, in the assay with NCI-H522 lung, with OVCAR-5 ovarian and in the assay on RXF 393 renal was greater than 100 µM throughout. For the same compound, the TGI in the assay with SF-539 CNS, in the assay on SN12C renal, with UACC-257 melanoma and in the assay on UO-31 renal was greater than 100 µM each time.
For the compound `CC(C)C1=CC(=O)C(C)(C2=NC(C)(C)CO2)c2ccccc21` (stereo not drawn), the TGI in the assay with A549 NSCLC, in the assay with ACHN renal, in the assay with CCRF-CEM leukemia, in the assay on EKVX NSCLC, in the assay on HL-60(TB) leukemia and with HOP-62 NSCLC was greater than 100 µM in each case. Moreover, the TGI with M14 melanoma, in the assay with MALME-3M melanoma, in the assay with MOLT-4 leukemia, with NCI-H522 lung, in the assay on RXF 393 renal and in the assay with SF-539 CNS was greater than 100 µM in each case. Also, the TGI with SN12C renal, in the assay with UACC-257 melanoma and with UO-31 renal was greater than 100 µM each time.
On to `CC1=C(N(C)C)C(=O)c2nc3n(c2C1=O)CCC3OC(N)=O` (stereo not drawn), for which the TGI in the assay on A498 renal amounted to 26.6 µM; with A549 NSCLC, 35.1 µM; with ACHN renal it was 30.4 µM; in the assay with CCRF-CEM leukemia, 42.8 µM; with EKVX NSCLC it was 36 µM; in the assay on HL-60(TB) leukemia, 31.6 µM. The TGI with HOP-62 NSCLC was 31.6 µM; in the assay on M14 melanoma it was 27.4 µM; with MALME-3M melanoma it was 23.3 µM; in the assay with MOLT-4 leukemia, greater than 100 µM; in the assay with NCI-H522 lung it was 28.8 µM; with OVCAR-5 ovarian, 34 µM. The TGI in the assay on SF-539 CNS was 31.8 µM; with SN12C renal it was 28.8 µM; in the assay with UACC-257 melanoma, 27.6 µM; with UO-31 renal, 31.1 µM.
